Measurements from US8623813B2, “Synergistic combinations of polyene fungicides and non-ribosomal peptides and related methods of use” (priority 2011, dated 2014).

What was measured:
Type in all cases: cell-based
[1] = system: Geotrichum candidum; experiment: Liquid fungal growth assay in 96-well plates, Geotrichum candidum; conditions: combinations 1:1 w/w
Method: For each 96 well plate, three separate additions were made to each well. First, 100 μl of potato dextrose broth w/100 ppm chloramphenicol was added. […] Finally, 50 μl of DI H2O was added to the blank plate (the plate intended to be left blank for an OD reference) OR 50 μl of 10^5 fungal inoculum was added to each well in its respective plate(s). […] The plates were then covered with lids and placed at 20° C. for 3 days of incubation. After the incubation period, the growth of each well in each plate was rated by optical density at 600 nm using a PerkinElmer Victor plate-reader using the setting “MIC Settings @600 (0.1 s)” that can be found in the Wallac® Victor® software. The results were also roughly assessed visually as cloudy wells (partial growth) appearing in the dilution series where the sample fell off in activity. After an OD was obtained for each well, the relative growth was determined by the following calculation: [(Treatment w/Bacteria)-(Treatment w/o Bacteria)/(Diluent Control w/Bacteria)-(Diluent Control w/o Bacteria)]×100. The positive control wells for bacterial growth were considered acceptable if the average and standard deviation of the OD readings at 600 nm were well above the range of the non-inoculated OD reference wells. […] Synergy was then determined by Gowing's Equation, set forth above. […]

[2] = system: Geotrichum citri-aurantii; experiment: Liquid fungal growth assay in 96-well plates, Geotrichum citri-aurantii; conditions: each component 2.23 ppm final, combinations 1:1 w/w
Method: For each 96 well plate, three separate additions were made to each well. First, 100 μl of potato dextrose broth w/100 ppm chloramphenicol was added. Then 25 μl of each sample (lipopeptides, natamycin, or combo from dilution plate) was supplemented. Finally, 50 μl of DI H2O was added to the blank plate (the plate intended to be left blank for an OD reference) OR 50 μl of 10^5 fungal inoculum was added to each well in its respective plate(s). […] The plates were then covered with lids and placed at 20° C. for 3 days of incubation. After the incubation period, the growth of each well in each plate was rated by optical density at 600 nm using a PerkinElmer Victor plate-reader using the setting “MIC Settings @600 (0.1 s)” that can be found in the Wallac® Victor® software. The results were also roughly assessed visually as cloudy wells (partial growth) appearing in the dilution series where the sample fell off in activity. After an OD was obtained for each well, the relative growth was determined by the following calculation: [(Treatment w/Bacteria)-(Treatment w/o Bacteria)/(Diluent Control w/Bacteria)-(Diluent Control w/o Bacteria)]×100. The positive control wells for bacterial growth were considered acceptable if the average and standard deviation of the OD readings at 600 nm were well above the range of the non-inoculated OD reference wells. […]

[3] = system: Saccharomyces cerevisiae; experiment: Liquid fungal growth assay in 96-well plates (YPD), Saccharomyces cerevisiae; conditions: combinations 1:1 w/w
[4] = system: Saccharomyces cerevisiae wild-type strain BY4742; experiment: Saccharomyces cerevisiae liquid culture growth (OD vs untreated control), Example 1; conditions: 16 hours at 30° C.
Method: A combination of lipopeptides and natamycin was tested for efficacy against Saccharomyces cerevisiae, which is generally recognized as a model organism for testing activity against fungi and which is closely related to Candida. See Smits, G J, et al., “Stress Tolerance in Fungi—To Kill a Spoilage Yeast,” Current Opin Biotechnol., 16(2): 225-30, (2005) and Castrillo, J I, et al., “Yeast as a Touchstone in Post-Genomic Research: Strategies for Integrative Analysis in Functional Genomics,” J Biochem Mol Biol., 37(1): 93-106, (2004).
Saccharomyces cerevisiae wild-type strain BY4742 was grown in liquid YPD in the presence of: (1) natamycin (Haorui Pharma-Chem Inc), (2) the above-described lipopeptide extract, (3) natamycin+lipopeptide extract, and 4) no lipopeptides or natamycin (control). The initial concentration of natamycin before being added to the liquid culture was 1 ppm and the initial concentration of lipopeptide extract was 15 ppm. Final concentration of natamycin in the liquid culture was 0.08 ppm and final concentration of lipopeptide extract was 1.12 ppm, such that the weight to weight ratio of natamycin to lipopeptide in the sample containing both was 1:14. […]
Gowing's Equation was applied, as follows, to determine synergism of lipopeptides with natamycin. […] Thus, X and Y are calculated by subtracting the amount of growth on a treated plate from 100, as shown below. […]

[5] = system: Penicillium expansum; experiment: Liquid fungal growth assay in 96-well plates, Penicillium expansum
Method: The effect of (i) natamycin (Haorui Pharma-Chem. Inc.), (ii) a crude extract of lipopeptides from Bacillus subtilis QST713 (prepared as described in Example 1), and (iii) a combination of natamycin and a crude extract of lipopeptides on Penicillium expansum was investigated. A liquid fungal growth assay was performed in 96-well plates to determine whether the combination of lipopeptides and natamycin is synergistic in inhibiting fungal growth. All procedures were conducted aseptically.
For each 96 well plate, three separate additions were made to each well. First, 100 μl of potato dextrose broth w/100 ppm chloramphenicol was added. […]
After the incubation period, the growth of each well in each plate was rated by optical density at 600 nm using a PerkinElmer Victor plate-reader using the setting “MIC Settings @600 (0.1 s)” that can be found in the Wallac® Victor® software. The results were also roughly assessed visually as cloudy wells (partial growth) appearing in the dilution series where the sample fell off in activity.
After an OD was obtained for each well, the relative growth was determined by the following calculation: [(Treatment w/Bacteria)−(Treatment w/o Bacteria)/(Diluent Control w/Bacteria)−(Diluent Control w/o Bacteria)]×100. […]
Synergy was then determined by Gowing's Equation, set forth above. […]

With `C[C@@H]1[C@H](O)[C@@H](C)/C=C/C=C/CC/C=C/C=C/C=C/C=C/C(O[C@H]2O[C@H](C)[C@@H](O)[C@H](N)[C@@H]2O)CC2O[C@](O)(CC(O)C(O)CCC(O)CC(O)CC(O)CC(=O)O[C@H]1C)CC(O)C2C(=O)O` (stereo partly shown) [Nystatin, nystatin] the “% of Growth of the Given Compound(s) at 1.12 ppm” value ([1]; nystatin series, each component 1.12 ppm final) was 96.2%, the “% of Growth of the Given Compound(s) at 2.23 ppm” value (“% of Growth … at 2.23 ppm” for short) ([2]; nystatin series) was 30.5% and the “% of Growth of the Given Compound(s) at 0.56 ppm” value ([3]; nystatin series, each component 0.56 ppm final) was 96.5%.
With `C[C@@H]1C/C=C/C=C/C=C/C=C/[C@H](O[C@@H]2O[C@H](C)[C@@H](O)[C@H](N)[C@@H]2O)C[C@@H]2O[C@](O)(C[C@@H](O)C[C@H]3O[C@@H]3/C=C/C(=O)O1)C[C@H](O)[C@H]2C(=O)O` [Natamycin, natamycin] the inhibition at 0.08 ppm ([4]; Saccharomyces cerevisiae, natamycin 0.08 ppm, lipopeptide extract 1.12 ppm final, read-out: growth inhibition (X, Y, Eob = 100 − growth)) was 22.1%, the “growth (OD) normalized to untreated control set at 100%” value ([4]; natamycin 0.08 ppm final, lipopeptide extract 1.12 ppm final (1:14 w/w), liquid YPD) was 77.89% and the “Percent Growth” value ([5]; 1.1 ppm final of each component, 3 days at 20° C., OD 600 nm) was 102%. The “% of Growth … at 2.23 ppm” value ([5]; each component 2.23 ppm final, combinations 1:1 w/w) was 35.38%, the “% of Growth … at 2.23 ppm” value ([1]; natamycin series, each component 2.23 ppm final) was 110.4% and the “% of Growth … at 2.23 ppm” value ([2]; natamycin series) was 57.4%. The “% of Growth of the Given Compound(s) at 1.12 ppm” value ([3]; natamycin series, each component 1.12 ppm final, 30° C. overnight) was 97.4%.
